How the values were obtained:
A549 cells [1] = assay: Hoechst 33258 staining (apoptosis); format: cell-based, human; conditions: 72 h
Experimental: For Hoechst staining, A549 cells were seeded in 6-well plates (8 × 10^4 cells/well) and allowed to adhere overnight. Compounds at a final concentration of 10, 5 and 1 µM were used to treat cells in the exponential growth phase for 72 h. Following this, the staining solution was added to the well plates and held at room temperature for 10 min. Afterwards, Hoechst 33258 was added to dye the cells for 10 min at room temperature in the dark. After washing two times with PBS, the treated cells were photographed under a semi-electrical fluorescence microscope (Olympus BX53, Olympus, Tokyo, Japan), to capture images of the stained nuclei from each well from randomly selected regions.

PC-9 cells = assay: MTT assay, PC-9 cells; format: cell-based; conditions: human non-small cell lung cancer cells, 72 h, read-out: Cytotoxic activity (IC50) PC-9
Experimental: (§1) Primary human liver HL-7702 cells were purchased from SIBS (Shanghai Institutes for Biological Sciences, Shanghai, China) while MCF-7, A549, PC-9 and PC-3 cells were from ATCC (American Type Culture Collection, Rockville, MD, USA). HL-7702, PC-9 and A549 cells were incubated with Roswell Park Memorial Institute (RPMI) 1640 medium and MCF-7 were cultured in Dulbecco’s Modified Eagle’s Medium (DMEM) supplemented with 10% heat-inactivated fetal bovine serum (FBS) and 1% antibiotics (penicillin and streptomycin). PC-3, a human prostate adenocarcinoma cell, was maintained in Ham’s F-12 Medium supplemented with 10% FBS, 1% penicillin/streptomycin and 1% glutamine. All cells were cultured at 37 °C in an incubator containing 5% CO2. The cell viability was determined by using the MTT (methyl thiazolyl tetrazolium bromide) assay. Briefly, cells were seeded in 96-well plates (4 × 10^3 cells/well) overnight and exposed to the synthesized compounds with various concentrations. Camptothecin and dimethyl sulfoxide (DMSO) served as a positive control and a negative control respectively. After 72 h of incubation, 20 μL of MTT (5 mg/mL in phosphate buffer saline (PBS)) were added into each well. Dissolved yellowish MTT is converted to an insoluble purple formazan during incubation (4 h). In order to dissolve the formazan crystals, 100 μL of lysis solution (10% SDS (sodium dodecyl sulfate)-5% isobutyl alcohol-0.01M HCl) was added into per well. Finally, the optical density (OD) of solution in the plates was measured using a microplate reader at 570 nm after dissolving overnight. Cell viability was calculated by using the following formula: […].

caspase-3 = assay: Caspase-3 activity assay; format: cell-based, human; conditions: A549 cells, 0, 1, 5 μM, 48 h
Experimental: Briefly, A549 cells were cultured at 2 × 10^5 cells/well in 6-well plates and incubated with different concentrations of compounds (0, 1, 5 µM) for 48 h. At the end of the treatment, cells were harvested and lysed by the addition of lysis buffer from the caspase-3 assay kit. Aliquots of cell lysate were added to 96-well plates and the supernatant of cell lysates were mixed with buffer containing the above substrate peptides for 2 h at 37 °C. The absorbance in each well was measured at 405 nm using a microplate reader.

Bax = assay: Western blotting, Bax; format: cell-based, human; conditions: A549 cells, 0-10 μM, 72 h, western blot
Experimental: (§2) Total protein samples were extracted from A549 cells. cells were treated with different concentrations of compounds for 72 h, then the cells were collected, homogenized in 100 µL of ice-cold lysis buffer containing 2% SDS (sodium dodecyl sulfate), 10% DTT (dithiothreitol), 10% glycerin, 0.1% BPB (bromophenol blue) and 50mM Tris buffer (pH 6.8). After cell lyses were boiled for 30 min at 100 °C, samples were resolved on 12% SDS-PAGE (polyacrylamide gel) and then transferred to nitrocellulose (NC) membranes. Then the membranes were blocked with 5% skim milk at room temperature for 1 h. After incubation, the membranes were probed by primary antibodies for β-actin, Bax (BCL2-associated X protein) and Bcl-2 (B-cell lymphoma-2) at 4 °C overnight. After the blots were washed in TBST (Tris-base solution-Tween 20), membranes were incubated with HRP (horseradish peroxidase) -conjugated IgG secondary antibodies for 1 h at 37 °C. Finally, a Chemi-Doc image analyzer was used to determine protein expression levels by analyzing the signals captured on the NC membranes.

A549 cells [2] = assay: MTT assay, A549 cells; format: cell-based; conditions: Homo sapiens, A549, 72 h, human non-small cell lung cancer cells, read-out: Cytotoxic activity (IC50) A549
Experimental: as §1

PC-3 cells = assay: MTT assay, PC-3 cells; format: cell-based; conditions: human prostate cancer cells, 72 h, read-out: Cytotoxic activity (IC50) PC-3
Experimental: as §1

MCF-7 cells = assay: MTT assay, MCF-7 cells; format: cell-based; conditions: MCF7, human breast cancer cells, 72 h, read-out: Cytotoxic activity (IC50) MCF-7
Experimental: as §1

MTT assay, HL-7702 cells = format: cell-based, human; conditions: HL-7702 cells (normal liver cells); normal human liver cells, MTT, 72 h; read-out: Cytotoxic activity (IC50) HL-7702
Experimental: as §1

HL-7702 cells = assay: MTT assay, HL-7702 cells; format: cell-based, human; conditions: HL-7702, MTT
Experimental: as §1

Bcl-2 = assay: Western blotting, Bcl-2; format: cell-based, human; conditions: A549 cells, 0-10 μM, 72 h, western blot
Experimental: as §2

A549 cells [3] = assay: Colony formation assay; format: cell-based; conditions: Homo sapiens, read-out: inhibition rate of colony formation
Experimental: The colony formation assay was executed to assess the colony forming ability of cancer cells treated by compounds. After being trypsinized and counted, the cells were seeded again on a 6-well plate with 4000 cells/well. Subsequently, cells were incubated at 37 °C in 5% CO2 overnight with medium. Afterwards, the cells were being treated with drugs (1 μM, 10 μM) and camptothecin (0.1 μM) for 10 days. Then, fresh PBS (1 mL/well) was added to wash the cells twice, before fixing with the stationary solution (10% acetic acid- 10% methanol- 80% dd H2O, 1 mL/well) at room temperature for 30 min. After that, 1% crystal violet was used to stain the cells. The cell viability was evaluated by the number of purple colonies.

SMILES: O=c1c2c3c(sc2nc(-c2ccccc2)n1CCc1ccc(O)cc1)CCCCC3 [Compound 15]
- nuclear morphology, Hoechst 33258 staining (A549 cells [1]; 1 μM): brightly stained nuclei due to chromatin condensation
- nuclear morphology, Hoechst 33258 staining (A549 cells [1]; 5 and 10 μM): cell membrane rupture and contraction were observed
- IC50 (PC-9 cells): > 100 µM
- caspase-3 activity (caspase-3): accumulation of caspase-3 in the cytosol
- Bax protein expression level (Bax): increase of Bax level
- IC50 (A549 cells [2]): 0.94 ± 0.01 µM
- IC50 (PC-3 cells): 47.5 ± 3.39 µM
- IC50 (MCF-7 cells): 17.3 ± 0.2 µM
- IC50 at 72 h (MTT assay, HL-7702 cells): > 100 µM
- toxicity to normal human liver cells (HL-7702 cells): no toxicity to normal human liver cells
- Bcl-2 protein expression level (Bcl-2): reduction of Bcl-2 level
- Bcl-2/Bax ratio (Bcl-2; compared to control): significant decrease in the proportion of Bcl-2/Bax
- inhibition at 1 µM (A549 cells [3]): 56%

Reference: publication PMC6843832, “Synthesis of Novel Analogs of Thieno[2,3-d] Pyrimidin-4(3H)-ones as Selective Inhibitors of Cancer Cell Growth” (Biomolecules, 2019)
